Experimental data taken from patent US10456434B2, “Extracts obtained from cell line cultures from plants belonging to the Oleaceae family (e.g. Syringa vulgaris), their preparation and use” (CRODA ITALIANA S. P. A., priority 2005, dated 2019).

How the values were obtained:
PC12 cells = test: Protection against oxidative stress induced cell death in PC12 cells; format: cell-based, rat; conditions: 72 hours
From the text: This assay has the aim of determining the protective capacity, of Syringa vulgaris extracts, in relation to oxidative stress induced cell death in rat pheochromocytoma cell cultures (PC12 cell line).
The assay has been performed as described in the literature (Echevery C. et al. Cytoprotection by neutral fraction of tannat red wine against oxidative stress-induced cell death. J. Agric. Food Chem., 2004, 52(24): 7395-9. Ochiai T. et al. Crocin prevents the death of rat pheo-chromycitoma (PC12) cells by its antioxidant effects stronger than those of alpha-tocopherol. Neurosci. Lett., 2004, 362(1):61-4).
The results obtained are summarised in table 11, and are expressed as the ratio between the numbers of viable cells after 72 hours in the samples with respect to control.

A549 cells = test: Oxidative stress (ROS, DCF fluorescence) in A549 cell cultures; format: cell-based, human; conditions: 20 mM, A549, galactose oxidative stress
Procedure: 10×10^5 A549 cells (ATCC-CCL195) have been seeded into wells with 3 ml of DMEM/medium (HAM'S F12K) with 10% FCS and incubated at 37° C. in a 5% CO2, water vapour saturated atmosphere. After 24 hours the culture medium is replaced by medium supplemented with 5.55 mM galactose, which is left in contact with the cells for 20 hours. The medium is once again replaced with medium containing galactose in the presence or absence of the test compound. After 5 hours, quantitative measurement of the ROSs is performed by washing the cells with phosphate buffer and then incubating them with 30 μM DCF-DA in buffer solution. At the end of a 15 minute incubation, excess DCF-DA is removed from the cells by washing, prior to measuring the fluorescence emitted.
Antioxidant activity measurements are performed using a (Hitachi F3010) spectrophotometer with excitation at 488 nm and measuring emission at 525 nm, and values are expressed in pmoles, by extrapolation from the calibration curve constructed using known quantities of DCF, in relation to total cellular protein. Values are thus expressed in % ages with respect to the ROS, content of the cells not subjected to oxidative stress, to which are assigned a value of 100.
Syringa vulgaris Extracts 1 and 2 and ascorbic acid have been dissolved in phosphate buffer.

[1] = Hydroxyl radical scavenger activity (Fenton reaction, luminol chemiluminescence); format: biochemical; conditions: mean of 6 independent assays
From the text: (§1) Syringa vulgaris Extracts 1 and 2, prepared as described in examples 1 and 2, have been used to assess in vitro antioxidant action with specific oxygen radical generating systems such as the superoxide anion (O2^−), the hydroxyl radical (HO), the peroxynitrite radical (ONOO^−) and the inhibition of lipid peroxidation. The superoxide anion has been measured by a chemiluminescent assay based on the hypoxanthine (HPX)/xanthine oxidase (XOD) reaction using the Lumimax Superoxide Anion Detection Kit (Stratagene, La Jolla, Calif., USA) and following the manufacturer's instructions. Hydroxyl radical scavenger activity has been measured by means of the Fenton reaction for the production of hydroxyl radicals and chemiluminescent dosage (using a Victor^3 chemiluminometer, Wallac, Finland) with luminol. Peroxynitrite ions have been determined by means of dosage with a spontaneous generator of peroxynitrites (3-morpholinosidnonimine hydrochloride; SIN-1) and a stable reagent for the nitroxyl ions (2-(4-carboxyphenyl)-4,4,5,5-tetramethylimidazoline-1-oxyl-3-oxide potassium salt PTIO spin trap) then dosed by means of electron spin resonance (ESR) using a. Nippon Denshi JES-FR30. […].
(§2) Extract 1 and Extract 2 listed in Table are derived from Syringa vulgaris cell cultures. In said extracts, verbascoside is present at 0.82% and 35% by weight respectively. […]

[2] = Superoxide anion chemiluminescent assay (hypoxanthine/xanthine oxidase); format: biochemical; conditions: mean of 6 independent assays
From the text: The superoxide anion has been measured by a chemiluminescent assay based on the hypoxanthine (HPX)/xanthine oxidase (XOD) reaction using the Lumimax Superoxide Anion Detection Kit (Stratagene, La Jolla, Calif., USA) and following the manufacturer's instructions. Hydroxyl radical scavenger activity has been measured by means of the Fenton reaction for the production of hydroxyl radicals and chemiluminescent dosage (using a Victor^3 chemiluminometer, Wallac, Finland) with luminol. Peroxynitrite ions have been determined by means of dosage with a spontaneous generator of peroxynitrites (3-morpholinosidnonimine hydrochloride; SIN-1) and a stable reagent for the nitroxyl ions (2-(4-carboxyphenyl)-4,4,5,5-tetramethylimidazoline-1-oxyl-3-oxide potassium salt PTIO spin trap) then dosed by means of electron spin resonance (ESR) using a. Nippon Denshi JES-FR30.
Extract 1 and Extract 2 listed in Table are derived from Syringa vulgaris cell cultures. […] The results are expressed as the concentration inhibiting 50% of activity (IC50). The values reported are the means of 6 independent assays.

[3] = Fe2+ induced lipid peroxidation (thiobarbituric acid); format: biochemical; conditions: mean of 6 independent assays
From the text: as §1, §2

Row | SMILES | Ratio of viable treated cells over control (PC12 cells; 100 μg/ml) | Ratio of viable treated cells over control (PC12 cells; 500 μg/ml) | Ratio of viable treated cells over control (PC12 cells; 1000 μg/ml) | ROS level (%) (A549 cells) | Hydroxyl radial (IC50) [1] | Superoxide radical (IC50) [2] | Lipid peroxidation (IC50) [3]
1 | CC1OC(OC2C(O)C(COC(=O)C=Cc3ccc(O)c(O)c3)OC(OCCc3ccc(O)c(O)c3)C2O)C(O)C(O)C1O [Isoverbascoside, b-(3,4-dihydroxyphenyl)-ethyl-O-α-L-ramnopyranosyl(1″-3′)-b-D-(6′-O-caffeoil)glucopyranoside] | 4 | 10 | 10 | – | – | – | –
2 | C[C@@H]1O[C@@H](O[C@@H]2[C@@H](O)[C@H](OCCc3ccc(O)c(O)c3)O[C@H](CO)[C@H]2OC(=O)/C=C/c2ccc(O)c(O)c2)[C@H](O)[C@H](O)[C@H]1O [Verbascoside, b-(3,4-dihydroxyphenyl)-ethyl-O-α-L-ramnopyranosyl (1″-3′)-b-D-(4′-O-caffeoil)-glucopyranoside] | – | – | – | 85 ± 7 % | 2.2 µg/mL | 3.1 µg/mL | 7.4 µg/mL
